Activity calls are given as the source filed them.
Experiments:
[1] = target: T1, RNA-binding protein pos-1 (Caenorhabditis elegans, UniProt G5EF15); experiment: inhibitors of POS-1/mex-3 RNA binding, dose response, biochemical, fluorescence polarization (AID 1964);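 also: purified POS-1 fused to maltose binding protein made in E. coli; potency of compounds blocking POS-1 binding to fluorescent RNA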
T1 sequence (G5EF15 whole entry): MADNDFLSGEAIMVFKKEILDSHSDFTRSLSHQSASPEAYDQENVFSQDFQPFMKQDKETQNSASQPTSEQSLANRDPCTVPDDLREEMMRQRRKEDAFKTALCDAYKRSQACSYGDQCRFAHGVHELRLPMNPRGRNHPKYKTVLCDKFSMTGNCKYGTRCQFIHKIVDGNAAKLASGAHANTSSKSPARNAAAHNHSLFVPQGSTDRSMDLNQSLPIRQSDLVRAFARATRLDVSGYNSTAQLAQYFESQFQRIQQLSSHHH

[2] = target: T2, Zinc finger protein mex-5 (Caenorhabditis elegans, UniProt Q9XUB2); experiment: MEX-5/TCR-2 RNA interaction inhibitors, dose response, biochemical, C. elegans, fluorescence polarization (AID 1960)
T2 sequence (Q9XUB2 whole entry): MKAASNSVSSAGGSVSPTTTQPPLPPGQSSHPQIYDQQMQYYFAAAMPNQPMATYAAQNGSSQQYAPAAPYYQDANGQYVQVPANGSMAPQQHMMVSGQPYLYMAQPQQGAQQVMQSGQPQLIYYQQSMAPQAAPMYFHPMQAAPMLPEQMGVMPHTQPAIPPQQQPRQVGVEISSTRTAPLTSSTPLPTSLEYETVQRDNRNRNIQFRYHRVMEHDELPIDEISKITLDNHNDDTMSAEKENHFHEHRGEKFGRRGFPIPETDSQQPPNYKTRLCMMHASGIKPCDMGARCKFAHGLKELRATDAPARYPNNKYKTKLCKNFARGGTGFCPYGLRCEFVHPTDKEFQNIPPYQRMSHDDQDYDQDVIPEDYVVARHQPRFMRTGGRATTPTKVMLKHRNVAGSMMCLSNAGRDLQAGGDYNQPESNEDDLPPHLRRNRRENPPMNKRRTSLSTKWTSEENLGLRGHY

cells [3] = experiment: cells
[4] = human group III sPLA2 inhibitors, dose response, biochemical, QFRET, IC50 (AID 743457);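 also: green fluorescence rise as the enzyme cleaves BODIPY PC-A2 in liposomes; potency for inhibition of the enzyme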
[5] = Luminescence Cell-Based Dose Response to Identify Activators of 5'UTR Stem-Loop Driven Prion Protein mRNA Translation in H4-C Neuroglioblastoma Cells. [Related pubchem assays: 1829 (Project Summary), 1814 (Primary HTS)]; type: functional
[6] = Luminescence Cell-Based Dose Response HTS to Identify Activators of Luciferase Translation or Activity in H4 […] Cells. [Related pubchem assays: 1829 (Project Summary), 1814 (Primary HTS)]; type: functional
H4 = experiment: Luminescence Cell-Based Dose Response HTS to Identify Activators of 5'UTR Stem-Loop Driven Prion Protein mRNA Translation in H4 Neuroglioblastoma Cells. [Related pubchem assays: 1829 (Project Summary), 1814 (Primary HTS)]; type: functional; conditions: Homo sapiens
[7] = Luminescence Cell-Based Dose Response to Identify Activators of Luciferase Translation or Activity in H4-C Neuroglioblastoma Cells. [Related pubchem assays: 1829 (Project Summary), 1814 (Primary HTS)]; type: functional
[8] = Luminescence Cell-Based Dose Confirmation to Identify Activators of 5'UTR Stem-Loop Driven Alpha-Synuclein mRNA Translation in H4 Neuroglioblastoma Cells. [Related pubchem assays: 1829 (Project Summary), 1814 (Primary HTS)]; type: functional
[9] = Counterscreen for […] of the human trace amine associated receptor 1 (TAAR1): Fluorescence-based cell-based high throughput dose response assay to identify nonselective Ga16 agonists.; type: functional
[10] = target: T3, Trace amine-associated receptor 1 (Homo sapiens, UniProt Q96RJ0); experiment: Fluorescence-based cell-based high throughput dose response assay to identify antagonists of the human trace amine associated receptor 1 (TAAR1).; type: functional
T3 sequence (Q96RJ0 whole entry): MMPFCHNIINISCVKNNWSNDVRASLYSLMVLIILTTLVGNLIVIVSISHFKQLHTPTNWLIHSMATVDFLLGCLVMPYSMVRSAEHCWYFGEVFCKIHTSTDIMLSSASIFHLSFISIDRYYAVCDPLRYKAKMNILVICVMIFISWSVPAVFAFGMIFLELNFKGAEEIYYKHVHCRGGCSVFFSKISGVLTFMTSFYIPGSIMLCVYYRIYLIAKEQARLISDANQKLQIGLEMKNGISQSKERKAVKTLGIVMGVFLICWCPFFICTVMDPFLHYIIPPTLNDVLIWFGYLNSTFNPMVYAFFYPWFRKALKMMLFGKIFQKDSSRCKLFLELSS

[11] = Counterscreen for antagonists of the human trace amine associated receptor 1 (hTAAR1): Fluorescence-based cell-based high throughput dose response assay to identify nonselective Ga16 antagonists.; type: functional
[12] = target: T3, Trace amine-associated receptor 1; experiment: Counterscreen for antagonists of the human trace amine associated receptor 1 (hTAAR1): Fluorescence-based cell-based high throughput dose response assay to identify TAAR1 Agonists.; type: functional
[13] = target: Glucose-6-phosphate 1-dehydrogenase (Homo sapiens, UniProt P11413); experiment: human G6PD enzyme inhibitors, dose response, selectivity assay for P. falciparum G6PD inhibitor project, biochemical, fluorescence (AID 504792); type: functional
[14] = target: 1-phosphatidylinositol 4,5-bisphosphate phosphodiesterase gamma-1 (Homo sapiens, UniProt P19174); experiment: Counterscreen for inhibitors of phospholipase C isozymes (PLC-B3): Fluorescence-based biochemical high throughput dose response assay to identify inhibitors of phospholipase C isozymes (PLC-gamma1).
[15] = target: 1-phosphatidylinositol 4,5-bisphosphate phosphodiesterase beta-3 (Homo sapiens, UniProt Q01970); experiment: Fluorescence-based biochemical high throughput dose response assay to identify inhibitors of phospholipase C isozymes (PLC-B3).
[16] = target: Disintegrin and metalloproteinase domain-containing protein 17 (Homo sapiens, UniProt P78536); experiment: exosite inhibitors of ADAM17, dose response, biochemical (AID 743260)
[17] = ADAM10 protease inhibitors, dose response, selectivity assay for ADAM17 exosite inhibitor project, biochemical, FRET peptide substrate, recombinant human ADAM10 (AID 743259);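 also: ADAM10 enzyme cleaving a FRET peptide substrate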
[18] = target: T4, DNA repair and recombination protein RAD54-like (Homo sapiens, UniProt Q92698); experiment: inhibitors of human RAD54 branch migration, confirmation, biochemical, fluorescence, cherry-picked samples, dose series (AID 651657); type: functional
T4 sequence (Q92698 whole entry): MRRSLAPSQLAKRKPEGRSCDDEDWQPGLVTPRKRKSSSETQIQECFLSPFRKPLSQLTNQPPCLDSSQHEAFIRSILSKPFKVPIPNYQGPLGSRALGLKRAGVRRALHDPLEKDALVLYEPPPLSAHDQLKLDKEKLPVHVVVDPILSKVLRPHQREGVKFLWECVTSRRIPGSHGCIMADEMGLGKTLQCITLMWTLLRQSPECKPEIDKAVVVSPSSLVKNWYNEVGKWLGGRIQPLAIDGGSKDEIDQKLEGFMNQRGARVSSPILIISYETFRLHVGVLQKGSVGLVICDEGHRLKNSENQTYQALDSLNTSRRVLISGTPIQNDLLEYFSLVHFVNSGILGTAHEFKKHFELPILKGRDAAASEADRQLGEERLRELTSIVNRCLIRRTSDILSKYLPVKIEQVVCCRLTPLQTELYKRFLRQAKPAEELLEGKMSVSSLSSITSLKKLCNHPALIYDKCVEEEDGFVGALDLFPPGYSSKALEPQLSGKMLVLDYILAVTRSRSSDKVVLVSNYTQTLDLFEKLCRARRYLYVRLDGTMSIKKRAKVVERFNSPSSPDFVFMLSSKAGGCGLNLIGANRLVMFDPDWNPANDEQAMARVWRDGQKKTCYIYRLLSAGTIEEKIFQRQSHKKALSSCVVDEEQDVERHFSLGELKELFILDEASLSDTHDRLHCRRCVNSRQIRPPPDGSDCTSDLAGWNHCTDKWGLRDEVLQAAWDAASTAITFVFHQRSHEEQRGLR

cells [19] = conditions: A549
Paired box protein Pax-8 = Paired box protein Pax-8 (Homo sapiens, UniProt Q06710); experiment: inhibitors of PAX8-driven TPO luciferase reporter, dose response, RMG-I cells, cherry-pick (AID 687027); type: functional, cell-based;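 also: luciferase reporter driven by Pax8 target thyroperoxidase promoter measured by SteadyGlo luminescence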
[20] = NIH:OVCAR-3 ovarian cancer cell cytotoxicity, dose response, PAX8 inhibitor project, plate reader, dry powder samples (AID 743044); type: functional, cell-based
[21] = non-specific cell cytotoxicity, dose response, cytotoxicity control for PAX8 inhibitor project, plate reader, dry powder samples (AID 743021); type: functional, cell-based
[22] = cytotoxicity in OVCAR8 ovarian cancer cells, dose response, PAX8 project, cell-based, plate reader, dry powder samples (AID 743197); type: functional; conditions: OVCAR-8
[23] = IOSE-T80 ovarian epithelial cell cytotoxicity, dose response, cytotoxicity control for PAX8 inhibitor project, plate reader, dry powder samples (AID 743045); type: functional, cell-based
[24] = IGROV1 ovarian cancer cell cytotoxicity, dose response, PAX8 inhibitor project, plate reader, dry powder samples (AID 743043); type: functional, cell-based; conditions: IGROV-1
[25] = target: Metabotropic glutamate receptor 3 (Rattus norvegicus, UniProt P31422); experiment: mGlu3 NAM potency via calcium readout, dose response, mGlu3 NAM project, TREx293 cells, Galpha15, calcium flux (AID 651840); type: functional
[26] = cytotoxicity in HepG2 cells, dose response, cytotoxicity control, cell-based, cherry-picked samples (AID 1053183); type: functional
[27] = P. falciparum Dd2 growth inhibitors, dose response, SYBR Green, cherry-picked samples (AID 1159567); type: functional, cell-based
[28] = HepG2 cell cytotoxicity, dose response, cytotoxicity control, cherry-picked samples (AID 1159577); type: functional, cell-based
[29] = A549 cell cytotoxicity, dose response, cytotoxicity control, cherry-picks, 26 µM top dose (AID 1053119); type: functional, cell-based
[30] = inhibitors of fibronectin matrix deposition, dose response, AH1F cells, Alexa488-FN fluorescence, cherry-picks (AID 1035475); type: functional, cell-based
[31] = HEK293T cell cytotoxicity, dose response, cytotoxicity control, CellTiter-Glo luminescence, dry powder, set 6 (AID 651949); type: functional, cell-based; conditions: HEK293
[32] = A Cell-Based Confirmatory Screen for Compounds that Inhibit VEEV, TC-83 (8).; type: functional
[33] = A Cell-Based Confirmatory Screen for Compounds that Inhibit VEEV, TC-83 (6).; type: functional
[34] = target: Potassium channel subfamily K member 9 (Homo sapiens, UniProt Q9NPC2); experiment: TASK3 (KCNK9) channel inhibitors, thallium flux, SAR follow-up, selectivity assay for TASK1 inhibitor project, cell-based, FluxOR thallium flux, concentration-response (AID 652211); type: functional;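 also: potency is for inhibitors of the channel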
[35] = target: Potassium channel subfamily K member 3 (Homo sapiens, UniProt O14649); experiment: TASK1 (KCNK3) potassium channel inhibitors, SAR follow-up, CHO cells, FluxOR thallium flux (AID 652212); type: functional
[36] = Late stage assay provider results from the probe development effort to identify inhibitors of the Plasmodium falciparum M18 Aspartyl Aminopeptidase (M18AAP): radiolabel-based cell-based dose response assay to identify compounds that inhibit P. falciparum growth in RBCs, Set 2..; type: functional

Sequence of Paired box protein Pax-8 (Q06710 whole entry): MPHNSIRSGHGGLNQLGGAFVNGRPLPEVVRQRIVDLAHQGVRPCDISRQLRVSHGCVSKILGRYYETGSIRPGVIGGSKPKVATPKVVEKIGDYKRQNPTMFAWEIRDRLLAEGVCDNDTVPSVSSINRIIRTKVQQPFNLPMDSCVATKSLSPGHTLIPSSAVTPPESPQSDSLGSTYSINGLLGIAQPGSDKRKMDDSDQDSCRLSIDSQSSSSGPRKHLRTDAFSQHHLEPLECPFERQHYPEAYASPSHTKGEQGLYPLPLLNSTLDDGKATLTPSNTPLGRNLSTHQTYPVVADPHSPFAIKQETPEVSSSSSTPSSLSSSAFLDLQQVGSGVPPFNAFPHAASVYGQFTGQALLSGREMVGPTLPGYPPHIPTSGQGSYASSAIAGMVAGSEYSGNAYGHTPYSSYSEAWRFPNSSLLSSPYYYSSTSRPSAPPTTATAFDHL
Sequence of Potassium channel subfamily K member 3 (O14649 whole entry): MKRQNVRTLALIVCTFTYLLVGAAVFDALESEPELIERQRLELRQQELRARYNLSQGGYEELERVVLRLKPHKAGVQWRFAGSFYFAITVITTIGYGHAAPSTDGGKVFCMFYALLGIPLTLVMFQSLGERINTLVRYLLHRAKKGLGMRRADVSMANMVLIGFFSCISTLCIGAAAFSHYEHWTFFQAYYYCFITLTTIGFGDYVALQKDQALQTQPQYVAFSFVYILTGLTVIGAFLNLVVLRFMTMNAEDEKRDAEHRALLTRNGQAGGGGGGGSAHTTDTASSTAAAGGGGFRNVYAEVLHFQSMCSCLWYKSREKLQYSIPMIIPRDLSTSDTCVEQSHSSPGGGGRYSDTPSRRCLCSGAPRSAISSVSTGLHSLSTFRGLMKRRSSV
Sequence of Glucose-6-phosphate 1-dehydrogenase (P11413 whole entry): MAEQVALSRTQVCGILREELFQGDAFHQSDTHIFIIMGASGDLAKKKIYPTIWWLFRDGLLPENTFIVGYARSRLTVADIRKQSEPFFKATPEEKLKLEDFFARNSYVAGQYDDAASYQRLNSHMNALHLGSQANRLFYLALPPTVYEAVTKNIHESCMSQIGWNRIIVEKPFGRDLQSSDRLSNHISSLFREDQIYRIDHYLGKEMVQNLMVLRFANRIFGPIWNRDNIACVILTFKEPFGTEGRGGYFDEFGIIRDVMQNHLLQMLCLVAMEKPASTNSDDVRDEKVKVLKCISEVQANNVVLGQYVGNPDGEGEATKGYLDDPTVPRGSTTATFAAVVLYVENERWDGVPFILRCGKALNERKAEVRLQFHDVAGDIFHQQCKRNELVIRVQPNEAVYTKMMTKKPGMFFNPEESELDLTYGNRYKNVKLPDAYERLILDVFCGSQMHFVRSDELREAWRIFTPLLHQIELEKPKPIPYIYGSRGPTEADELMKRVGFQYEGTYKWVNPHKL
Sequence of 1-phosphatidylinositol 4,5-bisphosphate phosphodiesterase gamma-1 (P19174 whole entry): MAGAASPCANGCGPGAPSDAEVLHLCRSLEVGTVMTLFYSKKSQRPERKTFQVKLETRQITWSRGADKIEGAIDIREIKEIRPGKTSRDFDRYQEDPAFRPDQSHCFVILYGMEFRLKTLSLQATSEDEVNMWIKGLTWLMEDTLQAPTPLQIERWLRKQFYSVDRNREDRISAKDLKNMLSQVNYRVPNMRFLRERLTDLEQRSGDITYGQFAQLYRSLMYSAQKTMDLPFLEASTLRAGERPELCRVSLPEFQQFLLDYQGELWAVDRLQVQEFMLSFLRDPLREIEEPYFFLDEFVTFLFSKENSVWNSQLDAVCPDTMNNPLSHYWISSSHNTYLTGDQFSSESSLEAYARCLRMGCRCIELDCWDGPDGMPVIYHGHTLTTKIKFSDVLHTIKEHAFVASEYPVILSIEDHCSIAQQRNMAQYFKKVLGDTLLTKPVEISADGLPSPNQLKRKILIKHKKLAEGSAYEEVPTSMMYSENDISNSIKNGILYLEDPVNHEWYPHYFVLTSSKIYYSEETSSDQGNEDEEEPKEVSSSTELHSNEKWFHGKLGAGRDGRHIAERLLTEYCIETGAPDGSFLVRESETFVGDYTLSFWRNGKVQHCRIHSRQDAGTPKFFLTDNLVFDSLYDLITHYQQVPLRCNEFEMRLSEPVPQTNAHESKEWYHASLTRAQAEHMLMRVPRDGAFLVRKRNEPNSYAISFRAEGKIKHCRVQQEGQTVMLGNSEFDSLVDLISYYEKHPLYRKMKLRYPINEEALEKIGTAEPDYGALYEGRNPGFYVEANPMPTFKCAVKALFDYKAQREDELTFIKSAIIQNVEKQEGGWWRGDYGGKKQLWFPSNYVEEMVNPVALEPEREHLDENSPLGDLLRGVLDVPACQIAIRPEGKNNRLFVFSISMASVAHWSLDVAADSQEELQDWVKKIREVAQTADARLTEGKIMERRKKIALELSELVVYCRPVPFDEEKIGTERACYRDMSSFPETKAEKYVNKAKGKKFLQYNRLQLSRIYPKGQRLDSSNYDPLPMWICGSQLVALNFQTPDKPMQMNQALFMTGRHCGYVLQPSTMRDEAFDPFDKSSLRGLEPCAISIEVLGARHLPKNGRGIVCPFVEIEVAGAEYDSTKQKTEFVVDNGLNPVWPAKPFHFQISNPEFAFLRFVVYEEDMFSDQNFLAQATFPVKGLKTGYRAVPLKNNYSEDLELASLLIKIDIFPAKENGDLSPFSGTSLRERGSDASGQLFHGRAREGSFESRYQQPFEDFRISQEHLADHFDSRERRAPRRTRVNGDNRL
Sequence of Potassium channel subfamily K member 9 (Q9NPC2 whole entry): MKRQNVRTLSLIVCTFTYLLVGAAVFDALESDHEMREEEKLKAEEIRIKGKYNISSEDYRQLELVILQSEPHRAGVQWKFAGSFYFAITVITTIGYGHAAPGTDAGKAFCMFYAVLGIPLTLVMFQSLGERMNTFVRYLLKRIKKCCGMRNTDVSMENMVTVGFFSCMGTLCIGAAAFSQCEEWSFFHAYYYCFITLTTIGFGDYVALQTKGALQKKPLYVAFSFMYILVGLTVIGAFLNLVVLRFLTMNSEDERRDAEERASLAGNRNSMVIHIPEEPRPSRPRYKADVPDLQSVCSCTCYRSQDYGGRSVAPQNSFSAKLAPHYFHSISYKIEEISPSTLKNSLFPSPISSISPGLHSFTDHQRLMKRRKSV
Sequence of Metabotropic glutamate receptor 3 (P31422 whole entry): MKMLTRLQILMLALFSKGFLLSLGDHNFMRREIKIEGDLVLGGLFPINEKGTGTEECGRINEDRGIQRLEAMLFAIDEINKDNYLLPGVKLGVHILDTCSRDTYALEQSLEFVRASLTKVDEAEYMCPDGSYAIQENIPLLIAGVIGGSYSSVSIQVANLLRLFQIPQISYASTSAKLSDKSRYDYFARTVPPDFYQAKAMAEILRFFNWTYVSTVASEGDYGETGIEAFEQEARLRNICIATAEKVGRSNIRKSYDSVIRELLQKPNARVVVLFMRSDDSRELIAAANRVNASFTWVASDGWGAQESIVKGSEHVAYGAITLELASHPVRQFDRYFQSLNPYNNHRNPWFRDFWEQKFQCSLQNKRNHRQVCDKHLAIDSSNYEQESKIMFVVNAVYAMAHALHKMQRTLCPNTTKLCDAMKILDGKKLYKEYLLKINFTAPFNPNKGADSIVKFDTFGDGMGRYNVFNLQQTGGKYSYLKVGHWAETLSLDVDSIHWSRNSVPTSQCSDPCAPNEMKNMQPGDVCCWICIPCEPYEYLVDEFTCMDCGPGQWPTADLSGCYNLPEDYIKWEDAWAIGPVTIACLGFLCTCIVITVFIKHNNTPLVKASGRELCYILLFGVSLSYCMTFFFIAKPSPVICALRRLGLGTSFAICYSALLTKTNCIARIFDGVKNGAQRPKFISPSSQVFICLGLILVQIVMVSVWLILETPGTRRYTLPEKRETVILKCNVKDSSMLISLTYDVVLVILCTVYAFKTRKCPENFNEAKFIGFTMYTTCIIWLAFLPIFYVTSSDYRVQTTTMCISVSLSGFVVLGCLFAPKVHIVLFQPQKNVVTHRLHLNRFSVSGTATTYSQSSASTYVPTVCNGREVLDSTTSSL
Sequence of Disintegrin and metalloproteinase domain-containing protein 17 (P78536 whole entry, the tested form may be a part): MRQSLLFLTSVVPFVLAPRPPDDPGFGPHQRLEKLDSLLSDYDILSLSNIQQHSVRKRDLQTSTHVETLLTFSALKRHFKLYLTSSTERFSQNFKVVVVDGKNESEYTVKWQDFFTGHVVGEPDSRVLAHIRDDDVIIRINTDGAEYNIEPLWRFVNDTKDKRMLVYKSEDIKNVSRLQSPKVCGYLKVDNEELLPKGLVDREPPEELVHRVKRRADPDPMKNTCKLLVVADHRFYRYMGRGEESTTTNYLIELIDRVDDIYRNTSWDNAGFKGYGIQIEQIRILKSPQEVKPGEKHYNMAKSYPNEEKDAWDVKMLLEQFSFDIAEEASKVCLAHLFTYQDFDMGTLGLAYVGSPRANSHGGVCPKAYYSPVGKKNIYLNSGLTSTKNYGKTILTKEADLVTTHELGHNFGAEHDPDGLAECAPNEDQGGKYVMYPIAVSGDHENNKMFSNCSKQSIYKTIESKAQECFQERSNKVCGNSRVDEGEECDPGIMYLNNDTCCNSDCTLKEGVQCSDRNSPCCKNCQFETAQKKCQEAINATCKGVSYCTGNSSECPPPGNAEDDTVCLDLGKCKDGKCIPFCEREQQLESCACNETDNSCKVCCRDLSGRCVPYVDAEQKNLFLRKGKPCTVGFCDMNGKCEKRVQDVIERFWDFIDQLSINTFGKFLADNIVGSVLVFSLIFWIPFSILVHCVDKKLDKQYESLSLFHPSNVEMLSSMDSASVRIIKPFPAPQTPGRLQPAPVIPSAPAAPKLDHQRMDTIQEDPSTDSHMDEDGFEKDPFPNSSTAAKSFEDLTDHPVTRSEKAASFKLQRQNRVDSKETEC

SMILES: CCn1c(=N)c(S(=O)(=O)c2ccccc2)cc2c(=O)n3ccccc3nc21
- EC50 [1]: > 300 µM (not active)
- EC50 [2]: > 300 µM (not active)
- AC50 (cells [3]): 1.01 µM (active)

SMILES: CCCCCC(=O)NNC(=S)NC(=O)c1ccccc1[N+](=O)[O-]
- IC50 [4]: > 122 µM (inactive)

SMILES: Cc1cc(/C=C(\C#N)C(=O)NCc2cccs2)c(C)n1-c1ccccc1F
- EC50 [5]: 0.952 µM (active)
- EC50 [6]: < 0.1 µM (active)
- EC50 (H4): 61 µM (active)
- EC50 [7]: 0.225 µM (active)
- EC50 [8]: 0.472 µM (active)
- EC50 [9]: > 29.9 µM (inactive)
- IC50 [10]: 3.75 µM (active)
- IC50 [11]: > 29.9 µM (inactive)
- EC50 [12]: > 29.9 µM (inactive)

SMILES: Cn1cc(S(=O)(=O)CC(=O)N2CCc3ccccc32)c2ccccc21
- IC50 [13]: > 80 µM (inactive)
- IC50 [14]: > 122 µM (inactive)
- IC50 [15]: > 122 µM (inactive)

SMILES: COC(=O)c1c(C)n(-c2ccc(OC)cc2)c2ccc(O)cc12
- IC50 [16]: > 69.5 µM (inactive)
- IC50 [17]: > 69.5 µM (inactive)

SMILES: Cc1nc2ccccc2c2oc(C(=O)NCCCN3CCC(C)CC3)cc12
- AC50 [18]: 36.5 µM (active)
- AC50 (cells [19]): > 52 µM (inactive)

SMILES: C[C@@H]1CN([C@H](C)CO)C(=O)c2cc(NS(=O)(=O)c3ccc(F)cc3)ccc2O[C@@H](C)CCCCO[C@@H]1CN(C)Cc1ccccc1
- AC50 (Paired box protein Pax-8): 7.31 µM (active)
- AC50 [20]: 21.1 µM (active)
- AC50 [21]: 2.88 µM (active)
- AC50 [22]: 39.4 µM (active)

SMILES: C[C@@H]1CN([C@H](C)CO)C(=O)c2cc(NC(=O)Nc3ccccc3)ccc2O[C@@H](C)CCCCO[C@H]1CN(C)Cc1ccc(C(F)(F)F)cc1
- AC50 (Paired box protein Pax-8): 10.9 µM (active)
- AC50 [23]: 31.7 µM (active)
- AC50 [20]: 24.2 µM (active)
- AC50 [24]: 36.2 µM (active)

SMILES: COc1ccc(C#Cc2ccc(C(=O)N3CCC[C@@H](O)C3)cc2F)cc1
- IC50 [25]: 0.402 µM

SMILES: COc1cc(CN2C[C@@H]3N[C@H](C2)[C@H]3c2ccc(-c3ccc(C#N)cc3)cc2)cc(OC)c1
- AC50 [26]: 24.3 µM (active)
- AC50 [27]: 1.33 µM (active)
- AC50 [28]: 8.15 µM (active)

SMILES: CC(C)(C)[S@+]([O-])N1Cc2cc(C(=O)NCc3ccccc3F)nc(-c3cccc(-c4cncnc4)c3)c2[C@@H]1CCO
- AC50 [29]: > 52 µM (inactive)
- AC50 [30]: 50.8 µM (active)

SMILES: COc1ccc(-c2nnc(SCc3ccc(Cl)cc3)o2)cc1
- AC50 [31]: > 52 µM (inactive)

SMILES: O=c1c2cc([N+](=O)[O-])ccc2nc(CN2CCNCC2)n1-c1ccsc1
- IC50 [32]: 1.74 µM (active)
- IC50 [33]: 1.74 µM (active)

SMILES: COc1ccccc1NC(=O)c1cccc(NC(=O)C2CCCCC2)c1
- IC50 [34]: 2.16 µM (active)
- IC50 [35]: 0.086 µM (active)

SMILES: Oc1ccc(C2CCCN(c3ccnc4ccccc34)C2)cc1O (stereo not given)
- IC50 [36]: 4.2 µM (active)

— ChEMBL document CHEMBL1201862, “PubChem BioAssay data set” (2004)
